PMC8566587, “Selection for constrained peptides that bind to a single target protein” (Nature Communications, 2021)
Where a SMILES comes first, the peptide text is derived from it.

Key:
[1] = biological target: SARS-CoV-2 Spike RBD (RBD296-531) (Severe acute respiratory syndrome coronavirus 2, UniProt P0DTC2); assay: biochemical; type: binding
[2] = cited from earlier work
From the text: The genetic circuit is based on a split intein and σ factor to which the peptide library is fused. This could be used to screen/select libraries of linear peptides or protein domains for binding to the target. Here, we decided to use modified peptides because they have advantages as pharmaceuticals, including more compact structures that are resistant to proteolysis and permeate the mammalian cell membrane. Modified peptides have been approved for the treatment of cancer, inflammation, and infection and increasing numbers are entering all phases of clinical development for diverse indicatio ...

Spike RBD = type: cell-based, SARS-CoV-2

CC[C@H](C)[C@H](NC(=O)[C@H]1NC(=O)[C@H](C(C)C)NC(=O)[C@H]([C@@H](C)CC)NC(=O)[C@H](CCC(=O)O)NC(=O)[C@@H](NC(=O)[C@H](Cc2c[nH]c3ccccc23)NC(=O)[C@H](CCC(=O)O)NC(=O)CNC(=O)[C@H](Cc2ccc(O)cc2)NC(=O)[C@H](CCCCN)NC(=O)[C@H](CS)NC(=O)[C@@H](NC(=O)CN)C(C)C)CSC1CC(=O)O)C(=O)O (stereo partly shown) [AMK-1057] (HELM PEPTIDE1{G.V.C.K.Y.G.E.W.C.E.I.V.[O=C(O)CC([C@H](N[*:1])C(=O)[*:2])[*:3]].I}$PEPTIDE1,PEPTIDE1,9:R3-13:R3$$$V2.0)
Kd [1]: 990 ± 5 nM

Enfuvirtide
proteolysis (in words) [2]: suffers from rapid proteolysis

VCKYGEWCEIVEI [Pap2c_1]
fluorescence output (in words) (Spike RBD): strong fluorescence output
specificity for Spike RBD as compared to Mdm2* (Spike RBD): 14 fold
